Reference: US8143282B2, “Heterocyclic compounds” (S*BIO Pte Ltd., priority 2005, dated 2012)

Tests used:
HDAC1 enzyme = target: T1, HDAC1 enzyme (Homo sapiens, UniProt Q13547); experiment: In vitro HDAC assay for determination of IC50 values (BIOMOL fluorescent-based HDAC activity assay); assay type: biochemical
T1 construct: Amplification of human HDAC1 coding region from this cDNA library was cloned separately into the baculovirus expression pDEST20 vector; made in house; host or cells: SF9 insect cells, pDEST20-HDAC1 baculovirus
T1 sequence (Q13547 whole entry): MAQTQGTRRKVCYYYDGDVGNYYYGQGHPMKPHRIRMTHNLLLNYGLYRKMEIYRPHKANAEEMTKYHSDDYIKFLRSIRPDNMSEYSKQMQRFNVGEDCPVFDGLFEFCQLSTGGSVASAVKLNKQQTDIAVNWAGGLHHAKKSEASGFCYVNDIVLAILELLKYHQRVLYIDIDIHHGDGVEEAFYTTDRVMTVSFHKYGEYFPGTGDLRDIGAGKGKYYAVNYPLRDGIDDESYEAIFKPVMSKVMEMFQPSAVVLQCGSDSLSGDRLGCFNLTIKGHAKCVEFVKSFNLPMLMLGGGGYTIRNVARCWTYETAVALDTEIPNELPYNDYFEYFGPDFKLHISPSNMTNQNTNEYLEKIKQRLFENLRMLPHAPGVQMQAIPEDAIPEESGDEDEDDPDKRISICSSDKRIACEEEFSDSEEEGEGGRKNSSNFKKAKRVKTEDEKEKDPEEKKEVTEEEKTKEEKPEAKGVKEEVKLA
Summary of the method: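 Recombinant GST-HDAC1, cloned from SW620 cDNA and expressed in Sf9 cells, tested in a fluorogenic Fluor de Lys deacetylase assay. Developer was added for 10 min and fluorescence read at 360/460 nm. IC50 came from concentration series.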

Colo205 cells = experiment: Cell-based proliferation assay for GI50 (CyQUANT), Colo205; settings: Homo sapiens, COLO 205, 96 h treatment, read-out: Cellular or Growth Inhibition Activity in Colo205 cells, GI50
Summary of the method: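 Cells were seeded at 1000 (PC3), 5000 (Colo205), 6000 (HCT116) or 4000 (HEP3B) per well and left 24 h at 37° C. Compound treatment lasted 96 h. Growth was read by CyQUANT, and GI50 (50% growth inhibition) came from dose-response curves.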

| SMILES | IC50 (HDAC1 enzyme) | GI50 (Colo205 cells) |
| --- | --- | --- |
| CC/C=C\CCc1nc2cc(/C=C/C(=O)NO)ccc2n1CCCNC(C)C [Compound 29, 3-[2-Hex-3-enyl-1-(3-isopropylamino-propyl)-1H-benzoimidazol-5-yl]-N-hydroxy-acrylamide] | 130 nM | 1920 nM |
| CC(C)Cc1nc2cc(/C=C/C(=O)NO)ccc2n1CCN(C(C)C)C(C)C [Compound 21, 3-[1-(2-Diisopropylamino-ethyl)-2-isobutyl-1H-benzoimidazol-5-yl]-N-hydroxy-acrylamide] | 380 nM | 2510 nM |
| CC(Cc1nc2cc(/C=C/C(=O)NO)ccc2n1CCNC(C)C)CC(C)(C)C (stereo not shown) [Compound 39, N-Hydroxy-3-[1-(2-isopropylamino-ethyl)-2-(2,4,4-trimethyl-pentyl)-1H-benzoimidazol-5-yl]-acrylamide] | 24 nM | 230 nM |
| CC(Cc1nc2cc(/C=C/C(=O)NO)ccc2n1CCN(C(C)C)C(C)C)CC(C)(C)C (stereo not shown) [Compound 38, 3-[1-(2-Diisopropylamino-ethyl)-2-(2,4,4-trimethyl-pentyl)-1H-benzoimidazol-5-yl]-N-hydroxy-acrylamide] | 560 nM | 1940 nM |
| CC/C=C\CCc1nc2cc(/C=C/C(=O)NO)ccc2n1CCN(C)C [Compound 54, 3-[1-(2-Dimethylamino-ethyl)-2-hex-3-enyl-1H-benzoimidazol-5-yl]-N-hydroxy-acrylamide] | 48 nM | 460 nM |
| CN(C)CCn1c(CCC(C)(C)C)nc2cc(/C=C/C(=O)NO)ccc21 [Compound 64, 3-[2-(3,3-Dimethyl-butyl)-1-(2-Dimethylamino-ethyl)-1H-benzoimidazol-5-yl]-N-hydroxy-acrylamide] | 100 nM | 730 nM |
| CCCCc1nc2cc(/C=C/C(=O)NO)ccc2n1CCCNC(C)C [Compound 47, 3-[2-Butyl-1-(3-isopropylamino-propyl)-1H-benzoimidazol-5-yl]-N-hydroxy-acrylamide] | 210 nM | 3600 nM |
| CCNCCn1c(CC(C)C)nc2cc(/C=C/C(=O)NO)ccc21 [Compound 37, 3-[1-(2-Ethylamino-ethyl)-2-isobutyl-1H-benzoimidazol-5-yl]-N-hydroxy-acrylamide] | 91 nM | 1090 nM |
| CC(Cc1nc2cc(/C=C/C(=O)NO)ccc2n1CCN)CC(C)(C)C (stereo not shown) [Compound 55, 3-[1-(2-Amino-ethyl)-2-(2,4,4-trimethyl-pentyl)-1H-benzoimidazol-5-yl]-N-hydroxy-acrylamide] | 37 nM | 910 nM |

Second part, the compound after the results:

| IC50 (HDAC1 enzyme) | GI50 (Colo205 cells) | SMILES |
| --- | --- | --- |
| 50 nM | 1200 nM | CCCCCc1nc2cc(/C=C/C(=O)NO)ccc2n1CCNC [Compound 75, N-Hydroxy-3-[1-(2-methylamino-ethyl)-2-pentyl-1H-benzoimidazol-5-yl]-acrylamide] |
| 62 nM | 920 nM | CCN(CC)CCn1c(CC(C)CC(C)(C)C)nc2cc(/C=C/C(=O)NO)ccc21 (stereo not shown) [Compound 41, 3-[1-(2-Diethylamino-ethyl)-2-(2,4,4-trimethyl-pentyl)-1H-benzoimidazol-5-yl]-N-hydroxy-acrylamide] |
| 100 nM | 2480 nM | CCN(CC)CCn1c(CCNC(=O)C(C)(C)C)nc2cc(/C=C/C(=O)NO)ccc21 [Compound 60, 3-{1-(2-Diethylamino-ethyl)-2-[2-(2,2-dimethyl-propionylamino)-ethyl]-1H-benzoimidazol-5-yl}-N-hydroxy-acrylamide] |
| 80 nM | 2440 nM | CCN(CC)CCn1c(CCCCC#N)nc2cc(/C=C/C(=O)NO)ccc21 [Compound 101, 3-[2-(4-Cyano-butyl)-1-(2-diethylamino-ethyl)-1H-benzoimidazol-5-yl]-N-hydroxy-acrylamide] |
| 100 nM | 700 nM | CCCCCCN(CC)CCn1c(C)nc2cc(/C=C/C(=O)NO)ccc21 [Compound 116, 3-{1-[2-(Ethyl-hexyl-amino)-ethyl]-2-methyl-1H-benzoimidazol-5-yl}-N-hydroxy-acrylamide] |
